Assay: molar heat capacity at constant volume; xn = mol fraction of the nth substance listed
Details: x1 = 0.2607

N [ammonia] + O
Details | molar heat capacity at constant volume [J/K/mol]
597.59 K, Fluid (supercritical or subcritical phases), Mass density=342.18 kg/m3, isochoric heat capacity | 106.69
597.6 K, Fluid (supercritical or subcritical phases), Mass density=160.07 kg/m3, isochoric heat capacity | 66.86
597.67 K, Fluid (supercritical or subcritical phases), Mass density=342.18 kg/m3, isochoric heat capacity | 101.08
597.68 K, Fluid (supercritical or subcritical phases), Mass density=376.89 kg/m3, isochoric heat capacity | 88.28
597.69 K, Fluid (supercritical or subcritical phases), Mass density=160.07 kg/m3, isochoric heat capacity | 65.49
597.76 K, Fluid (supercritical or subcritical phases), Mass density=342.18 kg/m3, isochoric heat capacity | 93.62
597.85 K, Fluid (supercritical or subcritical phases), Mass density=342.18 kg/m3, isochoric heat capacity | 99.13
597.93 K, Fluid (supercritical or subcritical phases), Mass density=342.18 kg/m3, isochoric heat capacity | 94.33
597.93 K, Fluid (supercritical or subcritical phases), Mass density=376.89 kg/m3, isochoric heat capacity | 82.42
598.02 K, Fluid (supercritical or subcritical phases), Mass density=342.18 kg/m3, isochoric heat capacity | 93.02
598.28 K, Fluid (supercritical or subcritical phases), Mass density=376.89 kg/m3, isochoric heat capacity | 83.59
598.33 K, Fluid (supercritical or subcritical phases), Mass density=329 kg/m3, isochoric heat capacity | 117.38
598.33 K, Liquid, Isochoric heat capacity | 117.38
598.45 K, Fluid (supercritical or subcritical phases), Mass density=329 kg/m3, isochoric heat capacity | 113.21
598.54 K, Fluid (supercritical or subcritical phases), Mass density=329 kg/m3, isochoric heat capacity | 109.57
598.71 K, Fluid (supercritical or subcritical phases), Mass density=329 kg/m3, isochoric heat capacity | 102.77
598.96 K, Fluid (supercritical or subcritical phases), Mass density=320.33 kg/m3, isochoric heat capacity | 120.79
598.96 K, Liquid, Isochoric heat capacity | 120.79
598.97 K, Fluid (supercritical or subcritical phases), Mass density=376.89 kg/m3, isochoric heat capacity | 81.57
598.98 K, Fluid (supercritical or subcritical phases), Mass density=160.07 kg/m3, isochoric heat capacity | 58.27
599.05 K, Fluid (supercritical or subcritical phases), Mass density=320.33 kg/m3, isochoric heat capacity | 119.07
599.05 K, Fluid (supercritical or subcritical phases), Mass density=329 kg/m3, isochoric heat capacity | 107.4
599.12 K, Fluid (supercritical or subcritical phases), Mass density=160.07 kg/m3, isochoric heat capacity | 56.88
599.14 K, Fluid (supercritical or subcritical phases), Mass density=320.33 kg/m3, isochoric heat capacity | 116.6
599.22 K, Fluid (supercritical or subcritical phases), Mass density=320.33 kg/m3, isochoric heat capacity | 116.48
599.22 K, Fluid (supercritical or subcritical phases), Mass density=329 kg/m3, isochoric heat capacity | 100.28
599.24 K, Fluid (supercritical or subcritical phases), Mass density=160.07 kg/m3, isochoric heat capacity | 59.53
599.28 K, Fluid (supercritical or subcritical phases), Mass density=160.07 kg/m3, isochoric heat capacity | 57.43
599.31 K, Fluid (supercritical or subcritical phases), Mass density=320.33 kg/m3, isochoric heat capacity | 114.22
599.31 K, Fluid (supercritical or subcritical phases), Mass density=329 kg/m3, isochoric heat capacity | 97.19
599.31 K, Fluid (supercritical or subcritical phases), Mass density=456.58 kg/m3, isochoric heat capacity | 67.32
599.39 K, Fluid (supercritical or subcritical phases), Mass density=320.33 kg/m3, isochoric heat capacity | 116.94
599.42 K, Fluid (supercritical or subcritical phases), Mass density=312.91 kg/m3, isochoric heat capacity | 124.13
599.42 K, Liquid, Isochoric heat capacity | 124.13
599.48 K, Fluid (supercritical or subcritical phases), Mass density=312.91 kg/m3, isochoric heat capacity | 116.5
599.48 K, Fluid (supercritical or subcritical phases), Mass density=456.58 kg/m3, isochoric heat capacity | 66.88
599.57 K, Fluid (supercritical or subcritical phases), Mass density=311.19 kg/m3, isochoric heat capacity | 125.38
599.57 K, Fluid (supercritical or subcritical phases), Mass density=312.91 kg/m3, isochoric heat capacity | 107.92
599.57 K, Liquid, Isochoric heat capacity | 125.38
599.63 K, Fluid (supercritical or subcritical phases), Mass density=311.19 kg/m3, isochoric heat capacity | 116.92
599.65 K, Fluid (supercritical or subcritical phases), Mass density=312.91 kg/m3, isochoric heat capacity | 98.79
599.65 K, Fluid (supercritical or subcritical phases), Mass density=456.58 kg/m3, isochoric heat capacity | 66.45
599.67 K, Fluid (supercritical or subcritical phases), Mass density=309.95 kg/m3, isochoric heat capacity | 126.26
599.67 K, Liquid, Isochoric heat capacity | 126.26
599.74 K, Fluid (supercritical or subcritical phases), Mass density=309.95 kg/m3, isochoric heat capacity | 122.91
599.74 K, Fluid (supercritical or subcritical phases), Mass density=311.19 kg/m3, isochoric heat capacity | 119.75
599.74 K, Fluid (supercritical or subcritical phases), Mass density=312.91 kg/m3, isochoric heat capacity | 95.52
599.78 K, Fluid (supercritical or subcritical phases), Mass density=308.35 kg/m3, isochoric heat capacity | 124.13
599.78 K, Fluid (supercritical or subcritical phases), Mass density=309.95 kg/m3, isochoric heat capacity | 120.4
599.78 K, Liquid, Isochoric heat capacity | 124.13
599.82 K, Fluid (supercritical or subcritical phases), Mass density=309.95 kg/m3, isochoric heat capacity | 110.51
599.82 K, Fluid (supercritical or subcritical phases), Mass density=311.19 kg/m3, isochoric heat capacity | 114.13
599.82 K, Fluid (supercritical or subcritical phases), Mass density=456.58 kg/m3, isochoric heat capacity | 66.86
599.89 K, Fluid (supercritical or subcritical phases), Mass density=307.35 kg/m3, isochoric heat capacity | 121.11
599.89 K, Liquid, Isochoric heat capacity | 121.11
599.91 K, Fluid (supercritical or subcritical phases), Mass density=308.35 kg/m3, isochoric heat capacity | 117.6
599.91 K, Fluid (supercritical or subcritical phases), Mass density=309.95 kg/m3, isochoric heat capacity | 104.19
599.99 K, Fluid (supercritical or subcritical phases), Mass density=307.35 kg/m3, isochoric heat capacity | 117.17
599.99 K, Fluid (supercritical or subcritical phases), Mass density=308.35 kg/m3, isochoric heat capacity | 105.88
599.99 K, Fluid (supercritical or subcritical phases), Mass density=309.95 kg/m3, isochoric heat capacity | 102.57
599.99 K, Fluid (supercritical or subcritical phases), Mass density=312.91 kg/m3, isochoric heat capacity | 91.51
600.02 K, Fluid (supercritical or subcritical phases), Mass density=305.44 kg/m3, isochoric heat capacity | 119.52
600.02 K, Liquid, Isochoric heat capacity | 119.52
600.08 K, Fluid (supercritical or subcritical phases), Mass density=305.44 kg/m3, isochoric heat capacity | 116.14
600.08 K, Fluid (supercritical or subcritical phases), Mass density=307.35 kg/m3, isochoric heat capacity | 103.34
600.08 K, Fluid (supercritical or subcritical phases), Mass density=308.35 kg/m3, isochoric heat capacity | 100.97
600.16 K, Fluid (supercritical or subcritical phases), Mass density=307.35 kg/m3, isochoric heat capacity | 101.06
600.17 K, Fluid (supercritical or subcritical phases), Mass density=303.47 kg/m3, isochoric heat capacity | 117.74
600.17 K, Fluid (supercritical or subcritical phases), Mass density=305.44 kg/m3, isochoric heat capacity | 107.85
600.17 K, Fluid (supercritical or subcritical phases), Mass density=308.35 kg/m3, isochoric heat capacity | 93.64
600.17 K, Liquid, Isochoric heat capacity | 118.63
600.25 K, Fluid (supercritical or subcritical phases), Mass density=303.47 kg/m3, isochoric heat capacity | 110.49
600.25 K, Fluid (supercritical or subcritical phases), Mass density=305.44 kg/m3, isochoric heat capacity | 102.54
600.29 K, Fluid (supercritical or subcritical phases), Mass density=301.94 kg/m3, isochoric heat capacity | 117.56
600.29 K, Liquid, Isochoric heat capacity | 117.56
600.33 K, Fluid (supercritical or subcritical phases), Mass density=301.94 kg/m3, isochoric heat capacity | 111.7
600.34 K, Fluid (supercritical or subcritical phases), Mass density=303.47 kg/m3, isochoric heat capacity | 104.01
600.34 K, Fluid (supercritical or subcritical phases), Mass density=305.44 kg/m3, isochoric heat capacity | 105.13
600.35 K, Fluid (supercritical or subcritical phases), Mass density=309.95 kg/m3, isochoric heat capacity | 100.02
600.42 K, Fluid (supercritical or subcritical phases), Mass density=303.47 kg/m3, isochoric heat capacity | 98.88
600.42 K, Fluid (supercritical or subcritical phases), Mass density=305.44 kg/m3, isochoric heat capacity | 97.9
